Source: US4400377A, “Use of polypeptides as analgesic drugs” (priority 1982, dated 1983)
Where two headings read alike, the source gives them in different places. Square brackets hold non-standard residues; d marks the D form. Peptide text beside a SMILES is read from it. sY = N[C@@H](Cc1ccc(OS(=O)(=O)O)cc1)C(=O)O; pGlu = O=C1CC[C@@H](C(=O)O)N1

Key:
[1] = tested on: patients with pain after surgery
[2] = tested on: patients suffering from chronic pain in cancer diseases; conditions: i.v. bolus 1 nanogram/kg, single patients

CSCC[C@H](NC(=O)[C@H](Cc1c[nH]c2ccccc12)NC(=O)CNC(=O)[C@@H](NC(=O)[C@H](Cc1ccc(OS(=O)(=O)O)cc1)NC(=O)[C@H](CC(=O)O)NC(=O)[C@H](CCC(N)=O)NC(=O)[C@@H]1CCC(=O)N1)[C@@H](C)O)C(=O)N[C@@H](CC(=O)O)C(=O)N[C@@H](Cc1ccccc1)C(N)=O [Ceruletide, ceruletide] ([pGlu]QD[sY]TGWMDF-NH2)
Side-effects ([1]; i.m. 0.05 micrograms/kg, single patients (incl. second injection in patients 34, 40)): None | Side-effects ([1]; i.m. 0.1 micrograms/kg, single patients): None and Burning sensation at the injection site and pain sensation at the injection site | Side-effects [2]: None
